ChEMBL document CHEMBL1201862, “PubChem BioAssay data set” (2004)
Calls of active or inactive are those of the source.

Key:
[1] = HEp-2 cell cytotoxicity, dose response, cytotoxicity control for RSV inhibitor project, HTS (AID 2410); format: functional; details: human respiratory syncytial virus
[2] = target: Glyceraldehyde-3-phosphate dehydrogenase (Homo sapiens, UniProt P04406)
Leucine aminopeptidase = target: T1, Leucine aminopeptidase (Plasmodium falciparum 3D7, UniProt Q8IL11); test: P. falciparum M17LAP inhibitors, primary screen, biochemical, fluorogenic H-Leu-NHMec substrate, 1536-well (AID 1619); format: functional
T1 sequence (Q8IL11 whole entry): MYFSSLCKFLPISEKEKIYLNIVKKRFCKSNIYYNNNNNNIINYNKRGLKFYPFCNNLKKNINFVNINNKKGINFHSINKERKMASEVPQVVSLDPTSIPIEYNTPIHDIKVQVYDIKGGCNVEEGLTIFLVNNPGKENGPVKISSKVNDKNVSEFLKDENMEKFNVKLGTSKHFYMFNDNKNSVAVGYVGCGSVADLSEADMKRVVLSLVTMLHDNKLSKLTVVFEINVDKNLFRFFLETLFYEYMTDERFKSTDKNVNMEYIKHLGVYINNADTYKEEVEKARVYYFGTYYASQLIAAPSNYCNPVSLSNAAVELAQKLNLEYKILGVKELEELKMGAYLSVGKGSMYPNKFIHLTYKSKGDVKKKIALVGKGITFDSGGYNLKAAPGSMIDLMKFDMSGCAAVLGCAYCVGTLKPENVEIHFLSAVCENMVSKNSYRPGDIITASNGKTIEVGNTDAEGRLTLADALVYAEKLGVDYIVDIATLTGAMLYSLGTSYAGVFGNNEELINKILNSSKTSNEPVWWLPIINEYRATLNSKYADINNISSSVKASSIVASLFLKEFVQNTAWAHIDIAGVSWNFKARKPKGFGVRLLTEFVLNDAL

Protein RecA = target: T2, Protein RecA (Mycobacterium tuberculosis, UniProt P9WHJ3); test: Fluorescence Cell-Free Homogeneous Dose Retest to Identify Inhibitors of RecA-Intein Splicing Activity. [Related pubchem assays (depositor defined):AID2097, AID2223, AID489010, AID492950]; format: functional
T2 sequence (P9WHJ3 whole entry): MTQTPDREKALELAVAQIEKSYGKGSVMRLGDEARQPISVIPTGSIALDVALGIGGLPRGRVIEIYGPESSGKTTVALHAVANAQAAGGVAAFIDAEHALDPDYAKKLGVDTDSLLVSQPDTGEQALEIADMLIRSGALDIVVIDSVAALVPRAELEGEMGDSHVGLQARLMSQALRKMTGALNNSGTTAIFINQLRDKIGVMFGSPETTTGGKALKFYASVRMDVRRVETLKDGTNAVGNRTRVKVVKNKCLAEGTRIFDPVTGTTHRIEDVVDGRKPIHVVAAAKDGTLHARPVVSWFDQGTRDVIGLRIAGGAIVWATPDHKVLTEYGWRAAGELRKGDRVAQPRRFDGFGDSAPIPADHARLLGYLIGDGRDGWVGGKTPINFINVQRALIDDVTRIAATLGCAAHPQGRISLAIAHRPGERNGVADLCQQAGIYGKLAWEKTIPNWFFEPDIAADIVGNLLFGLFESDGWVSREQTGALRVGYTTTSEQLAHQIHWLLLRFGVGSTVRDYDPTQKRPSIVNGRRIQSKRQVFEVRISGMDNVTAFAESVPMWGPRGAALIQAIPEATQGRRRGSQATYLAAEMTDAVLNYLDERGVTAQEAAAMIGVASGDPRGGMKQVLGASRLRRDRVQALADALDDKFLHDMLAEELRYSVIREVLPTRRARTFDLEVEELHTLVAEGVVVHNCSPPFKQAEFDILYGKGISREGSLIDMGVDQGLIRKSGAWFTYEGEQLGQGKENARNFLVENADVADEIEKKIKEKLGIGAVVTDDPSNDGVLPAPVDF

[3] = target: T3, Replicative DNA helicase DnaB (Mycobacterium tuberculosis, UniProt P9WMR3); test: DnaB intein splicing inhibitors, dose response, biochemical, cell-free fluorescence (AID 449749); format: functional
T3 sequence (P9WMR3 whole entry): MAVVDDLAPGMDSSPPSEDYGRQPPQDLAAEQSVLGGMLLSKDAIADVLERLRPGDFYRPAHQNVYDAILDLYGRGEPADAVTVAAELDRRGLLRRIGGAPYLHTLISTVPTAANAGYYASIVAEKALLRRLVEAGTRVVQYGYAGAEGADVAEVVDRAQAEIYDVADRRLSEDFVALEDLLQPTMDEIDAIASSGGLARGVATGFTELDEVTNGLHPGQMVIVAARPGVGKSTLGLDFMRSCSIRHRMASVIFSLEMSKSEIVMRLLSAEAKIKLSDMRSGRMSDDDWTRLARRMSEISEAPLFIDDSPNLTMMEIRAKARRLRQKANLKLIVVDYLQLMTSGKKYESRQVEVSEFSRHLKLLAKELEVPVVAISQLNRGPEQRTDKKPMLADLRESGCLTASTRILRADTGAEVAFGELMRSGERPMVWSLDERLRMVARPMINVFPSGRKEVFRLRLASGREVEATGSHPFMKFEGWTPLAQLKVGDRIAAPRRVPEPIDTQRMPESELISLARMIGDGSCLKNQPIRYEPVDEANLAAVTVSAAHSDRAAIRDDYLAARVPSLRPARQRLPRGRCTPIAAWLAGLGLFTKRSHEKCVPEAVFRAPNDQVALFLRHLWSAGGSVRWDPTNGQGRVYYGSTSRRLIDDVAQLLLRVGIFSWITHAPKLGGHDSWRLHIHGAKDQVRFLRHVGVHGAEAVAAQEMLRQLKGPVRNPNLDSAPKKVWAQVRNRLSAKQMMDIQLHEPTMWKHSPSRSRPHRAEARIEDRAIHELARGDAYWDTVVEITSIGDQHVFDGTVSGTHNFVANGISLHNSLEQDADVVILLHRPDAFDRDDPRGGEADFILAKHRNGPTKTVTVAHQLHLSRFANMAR

[4] = growth suppression of beta-catenin-knockout colon cells, dose response, cell-based, HCT116, human colon tumor (AID 1045); format: functional;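 also: HCT116 colon tumor cells with beta catenin knocked out; cells exposed to compound for 60 hours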
[5] = growth suppression of PTEN-null colon cells, dose response, cell-based, HCT116 PTEN knockout (AID 1047); format: functional;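 also: HCT116 colon tumor cells with PTEN knocked out; cells exposed to compound for 60 hours before readout; potency for loss of cell viability measured by luminescence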
Large T antigen = Large T antigen (Simian virus 40, UniProt P03070); format: functional, Betapolyomavirus macacae;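 also: Confirmatory-stage PubChem screen for compounds that inhibit SV40 T antigen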
[6] = target: T4, Rac GTPase-activating protein 1 (Homo sapiens, UniProt Q9H0H5); test: MgcRacGAP GTPase-activating activity inhibitors, confirmation, biochemical, ADP Hunter fluorescence, primary and confirmatory (AID 624330); format: functional
T4 sequence (Q9H0H5 whole entry): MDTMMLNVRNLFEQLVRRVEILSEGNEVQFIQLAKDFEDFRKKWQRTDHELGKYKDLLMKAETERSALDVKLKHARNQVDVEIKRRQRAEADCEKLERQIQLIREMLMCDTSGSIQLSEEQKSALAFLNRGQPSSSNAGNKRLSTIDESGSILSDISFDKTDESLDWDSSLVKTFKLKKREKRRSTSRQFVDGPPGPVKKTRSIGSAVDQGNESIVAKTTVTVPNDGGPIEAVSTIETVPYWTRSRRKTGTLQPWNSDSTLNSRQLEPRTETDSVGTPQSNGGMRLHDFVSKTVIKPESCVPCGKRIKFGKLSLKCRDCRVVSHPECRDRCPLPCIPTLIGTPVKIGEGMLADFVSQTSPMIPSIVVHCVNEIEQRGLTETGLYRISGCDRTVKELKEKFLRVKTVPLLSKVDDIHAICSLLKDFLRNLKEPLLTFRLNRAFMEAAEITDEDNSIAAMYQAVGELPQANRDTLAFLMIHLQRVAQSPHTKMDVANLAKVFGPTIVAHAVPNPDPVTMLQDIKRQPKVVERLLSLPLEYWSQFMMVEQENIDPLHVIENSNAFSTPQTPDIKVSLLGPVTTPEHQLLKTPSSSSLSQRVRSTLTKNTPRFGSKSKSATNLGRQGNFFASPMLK

Aminopeptidase N = target: T5, Aminopeptidase N (Plasmodium falciparum FcB1/Columbia, UniProt O96935); test: P. falciparum M1AAP inhibitors, biochemical, fluorogenic H-Leu-NHMec substrate, 1536-well (AID 1445); set-up: species or system Plasmodium falciparum 3D7, 3D7
T5 sequence (O96935 whole entry): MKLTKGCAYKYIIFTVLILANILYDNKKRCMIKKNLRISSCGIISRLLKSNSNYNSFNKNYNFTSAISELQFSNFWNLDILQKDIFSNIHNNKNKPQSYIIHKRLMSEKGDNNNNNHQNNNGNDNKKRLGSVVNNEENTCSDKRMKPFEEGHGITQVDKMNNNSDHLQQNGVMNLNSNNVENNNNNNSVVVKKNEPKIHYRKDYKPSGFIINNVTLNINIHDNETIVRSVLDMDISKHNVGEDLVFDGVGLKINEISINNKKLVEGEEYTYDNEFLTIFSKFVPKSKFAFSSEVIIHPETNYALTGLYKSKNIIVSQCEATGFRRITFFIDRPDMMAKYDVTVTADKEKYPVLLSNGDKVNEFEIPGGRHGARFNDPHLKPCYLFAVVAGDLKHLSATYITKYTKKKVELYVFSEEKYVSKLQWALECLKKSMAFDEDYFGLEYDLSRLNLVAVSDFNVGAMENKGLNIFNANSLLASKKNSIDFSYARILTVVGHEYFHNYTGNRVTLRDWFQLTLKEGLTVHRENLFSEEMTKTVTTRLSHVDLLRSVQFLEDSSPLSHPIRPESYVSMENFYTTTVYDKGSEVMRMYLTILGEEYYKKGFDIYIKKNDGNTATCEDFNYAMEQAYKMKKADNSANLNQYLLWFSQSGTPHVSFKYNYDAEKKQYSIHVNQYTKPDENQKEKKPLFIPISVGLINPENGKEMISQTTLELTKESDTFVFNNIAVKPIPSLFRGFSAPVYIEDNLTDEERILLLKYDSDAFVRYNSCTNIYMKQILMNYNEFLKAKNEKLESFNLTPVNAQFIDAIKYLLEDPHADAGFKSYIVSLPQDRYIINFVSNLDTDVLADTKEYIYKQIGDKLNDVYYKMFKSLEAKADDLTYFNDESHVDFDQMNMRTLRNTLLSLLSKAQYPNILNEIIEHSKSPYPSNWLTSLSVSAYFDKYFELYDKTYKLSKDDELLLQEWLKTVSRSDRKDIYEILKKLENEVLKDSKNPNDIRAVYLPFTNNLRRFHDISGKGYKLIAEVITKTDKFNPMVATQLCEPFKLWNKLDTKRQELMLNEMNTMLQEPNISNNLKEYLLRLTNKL

[7] = target: T6, Mannose-6-phosphate isomerase (Homo sapiens, UniProt P34949); test: human PMI inhibitors, high substrate, primary screen, biochemical, fluorescence intensity, high mannose 6-phosphate (AID 1220)
T6 sequence (P34949 whole entry): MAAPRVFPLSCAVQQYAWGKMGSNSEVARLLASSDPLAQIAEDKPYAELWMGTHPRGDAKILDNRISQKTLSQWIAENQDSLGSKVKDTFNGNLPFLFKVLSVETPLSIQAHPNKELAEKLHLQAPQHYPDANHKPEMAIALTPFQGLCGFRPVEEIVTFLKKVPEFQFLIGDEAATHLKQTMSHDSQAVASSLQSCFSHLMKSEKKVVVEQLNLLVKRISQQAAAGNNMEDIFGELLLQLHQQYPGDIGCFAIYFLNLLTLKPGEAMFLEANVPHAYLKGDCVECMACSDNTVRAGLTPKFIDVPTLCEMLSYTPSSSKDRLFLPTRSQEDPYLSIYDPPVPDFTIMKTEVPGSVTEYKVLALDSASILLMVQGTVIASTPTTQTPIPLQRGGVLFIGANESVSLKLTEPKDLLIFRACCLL

Genome polyprotein = Genome polyprotein (dengue virus type 2, UniProt P29990); test: Dengue-2 NS5 methyltransferase inhibitors, primary screen, biochemical, confirmation dose response (AID 588689); format: functional
[8] = microbe, parasite or virus in culture; format: functional; details: Mycobacterium tuberculosis
Cytochrome P450 2C9 = Cytochrome P450 2C9 (Homo sapiens, UniProt P11712)
Vero [9] = test: host cell cytotoxicity of antiviral hits, dose response, cytotoxicity control for West Nile virus antiviral project, secondary assay (AID 1650); format: functional; details: Chlorocebus sabaeus
Vero [10] = test: cells; format: functional; details: Chlorocebus sabaeus
[11] = Luminescence Cell-Based Dose Retest to Confirm Inhibitors of Cancer Stem Cells. [Related pubchem assays (depositor defined):AID2717, AID2721]; format: functional; details: Homo sapiens

Chain of Glyceraldehyde-3-phosphate dehydrogenase (P04406 whole entry): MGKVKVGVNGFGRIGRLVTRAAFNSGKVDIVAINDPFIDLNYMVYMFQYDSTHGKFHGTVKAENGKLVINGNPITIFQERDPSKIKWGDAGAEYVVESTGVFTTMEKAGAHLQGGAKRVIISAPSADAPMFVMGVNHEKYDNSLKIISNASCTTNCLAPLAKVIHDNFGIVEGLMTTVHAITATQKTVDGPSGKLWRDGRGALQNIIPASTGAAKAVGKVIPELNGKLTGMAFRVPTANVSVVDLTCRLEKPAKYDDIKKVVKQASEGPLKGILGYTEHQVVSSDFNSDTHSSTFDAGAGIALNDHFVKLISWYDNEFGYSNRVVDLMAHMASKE
Chain of Genome polyprotein (P29990 2492-3391 limits assumed): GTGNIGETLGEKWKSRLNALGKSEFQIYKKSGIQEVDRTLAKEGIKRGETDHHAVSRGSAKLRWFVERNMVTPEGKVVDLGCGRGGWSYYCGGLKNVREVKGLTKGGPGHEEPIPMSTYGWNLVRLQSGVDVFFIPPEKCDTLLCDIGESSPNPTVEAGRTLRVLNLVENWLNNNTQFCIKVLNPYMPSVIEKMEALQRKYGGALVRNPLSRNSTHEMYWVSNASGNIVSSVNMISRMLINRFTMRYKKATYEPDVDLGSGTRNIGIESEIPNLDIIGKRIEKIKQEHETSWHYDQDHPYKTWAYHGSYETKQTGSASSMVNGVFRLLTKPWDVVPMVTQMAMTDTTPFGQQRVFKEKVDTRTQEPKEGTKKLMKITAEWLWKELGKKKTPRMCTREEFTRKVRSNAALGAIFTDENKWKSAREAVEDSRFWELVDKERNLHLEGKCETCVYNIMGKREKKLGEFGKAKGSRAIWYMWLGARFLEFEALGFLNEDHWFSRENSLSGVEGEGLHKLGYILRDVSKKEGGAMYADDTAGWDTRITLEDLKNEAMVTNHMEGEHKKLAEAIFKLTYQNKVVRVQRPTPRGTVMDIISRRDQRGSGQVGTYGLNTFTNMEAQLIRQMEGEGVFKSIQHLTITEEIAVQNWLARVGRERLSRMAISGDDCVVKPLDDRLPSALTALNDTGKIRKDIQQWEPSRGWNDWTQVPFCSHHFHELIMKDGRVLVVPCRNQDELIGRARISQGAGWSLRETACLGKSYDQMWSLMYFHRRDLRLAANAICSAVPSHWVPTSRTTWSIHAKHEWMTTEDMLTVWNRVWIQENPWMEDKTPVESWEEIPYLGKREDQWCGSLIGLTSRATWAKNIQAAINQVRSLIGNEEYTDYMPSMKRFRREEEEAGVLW
Chain of Large T antigen (P03070 whole entry): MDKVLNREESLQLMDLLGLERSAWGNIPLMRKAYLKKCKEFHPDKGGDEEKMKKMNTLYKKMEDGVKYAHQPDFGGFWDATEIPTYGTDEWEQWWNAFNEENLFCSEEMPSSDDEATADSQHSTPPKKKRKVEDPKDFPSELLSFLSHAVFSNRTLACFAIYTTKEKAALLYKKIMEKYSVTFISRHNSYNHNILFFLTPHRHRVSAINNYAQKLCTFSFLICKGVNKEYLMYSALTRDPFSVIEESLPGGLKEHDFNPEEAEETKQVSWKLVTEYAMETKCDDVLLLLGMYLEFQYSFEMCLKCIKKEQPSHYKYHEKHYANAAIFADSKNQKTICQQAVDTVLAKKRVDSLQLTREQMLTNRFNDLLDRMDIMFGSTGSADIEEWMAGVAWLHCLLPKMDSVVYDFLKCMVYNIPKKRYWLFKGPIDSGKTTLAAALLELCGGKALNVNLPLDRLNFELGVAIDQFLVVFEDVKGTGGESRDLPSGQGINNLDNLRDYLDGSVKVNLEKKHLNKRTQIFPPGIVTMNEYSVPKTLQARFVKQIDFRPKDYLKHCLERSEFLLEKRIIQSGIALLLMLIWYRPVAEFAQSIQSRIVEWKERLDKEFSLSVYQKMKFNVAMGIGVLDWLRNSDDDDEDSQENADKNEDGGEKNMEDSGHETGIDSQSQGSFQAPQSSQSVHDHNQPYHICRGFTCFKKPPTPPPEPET
Chain of Cytochrome P450 2C9 (P11712 whole entry): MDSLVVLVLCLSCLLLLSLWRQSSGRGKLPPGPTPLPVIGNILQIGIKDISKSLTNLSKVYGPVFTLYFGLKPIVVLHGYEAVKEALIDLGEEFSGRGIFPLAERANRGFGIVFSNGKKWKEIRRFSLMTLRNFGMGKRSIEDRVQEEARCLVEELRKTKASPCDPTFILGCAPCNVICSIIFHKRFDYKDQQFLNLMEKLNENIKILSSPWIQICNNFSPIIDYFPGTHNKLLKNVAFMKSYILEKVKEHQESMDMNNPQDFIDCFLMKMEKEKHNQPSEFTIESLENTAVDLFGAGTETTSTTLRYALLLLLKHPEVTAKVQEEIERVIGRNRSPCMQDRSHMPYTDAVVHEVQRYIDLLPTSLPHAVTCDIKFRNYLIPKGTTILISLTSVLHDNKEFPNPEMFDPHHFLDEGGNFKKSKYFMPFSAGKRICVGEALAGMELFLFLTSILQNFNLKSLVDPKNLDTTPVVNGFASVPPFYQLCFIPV

COc1ccc(/C=C/C(=O)Nc2ccc3c(c2)CCC3)cc1OC
CC50 [1]: > 50 µM (active)

O=C(Nc1nncs1)c1cccc(S(=O)(=O)N2CCCC2)c1
IC50 [2]: > 100 µM (not active)

CCCCN1C(=O)C2Cc3c([nH]c4ccccc34)CN2C1=S (centres undefined)
CC50 [1]: 20.8 µM (active)

COc1ccc(-c2nc(N3CCOCC3)nc3n[nH]c(N)c23)cc1
IC50 (Leucine aminopeptidase): 8.11 µM (active)

CC1=NN(CCC#N)C(=O)/C1=C/c1ccc(N(C)C)cc1
EC50 (Protein RecA): 3.17 µM (active)
IC50 (Leucine aminopeptidase): 120 µM (active)
AC50 [3]: 2.79 µM (inconclusive)

CCOC(=O)c1ccc(-c2ccc(/C=N/NC(=O)CN(c3ccccc3Br)S(C)(=O)=O)o2)cc1
CC50 [1]: > 50 µM (active)
EC50 [4]: 22.5 µM (active)
EC50 [5]: 17.8 µM (active)

COc1cccc(S(=O)(=O)Nc2cnc3ccccc3c2)c1
IC50 [2]: > 100 µM (not active)

CC1=NOC(=O)/C1=C\c1ccc(-c2ccc(Cl)c(C(=O)O)c2)o1
IC50 (Large T antigen): 14.2 µM (active)
IC50 [6]: 141 µM (active)
IC50 (Aminopeptidase N): 17.4 µM (active)
IC50 [7]: > 50 µM (not active)
IC50 (Genome polyprotein): 15.3 µM (active)

CCCCOc1ccc(C(=O)N/N=C/c2ccc(OCCN3CCCCC3)c(OC)c2)cc1
CC50 [1]: 16.1 µM (active)
CC50 [8]: 18.9 µM (active)

Cn1c(O)cc(=O)nc1SCC(=O)Nc1ccccc1
AC50 (Cytochrome P450 2C9): 2.82 µM (inconclusive)
IC50 (Leucine aminopeptidase): 17.1 µM (active)

O=C(c1c[nH]c2ccccc12)C(Cl)c1ccccc1 (centres undefined)
CC50 (Vero [9]): 66.6 µM (active)
CC50 (Vero [10]): > 25 µM (active)
AC50 [11]: 1.74 µM (active)

Cc1nc2c([nH]1)OC(N)=C(C#N)C21CCN(Cc2ccccc2)CC1
IC50 (Leucine aminopeptidase): 63.2 µM (active)
